Holding throughout (assay type): cell-based
In assay [1] the test system is S. epidermidis ATCC 31432. As to the kind of experiment: In vitro antibacterial evaluation, MIC by agar dilution, S. epidermidis ATCC 31432. The settings on record: Staphylococcus epidermidis, ATCC31432. In short, it runs like this: (§1)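 NCCLS agar dilution; Mueller-Hinton agar, 2-fold series 128 to ≤0.25 μg/mL, duplicates. Inoculum ~10^4 cfu/spot from 4-6 h log-phase broth culture. 35°-36° C, 16-20 h; MIC = lowest concentration with no growth.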
Background: Agar dilution tests growth on a series of plates holding different concentrations.

The subject of assay [2] is P. aeruginosa ATCC 27853. As to the kind of experiment: In vitro antibacterial evaluation, MIC by agar dilution, P. aeruginosa ATCC 27853. The note with it: Pseudomonas aeruginosa, ATCC27853, read-out: MIC. The method, boiled down:
as §1

Assay [3] relates to S. aureus 76 (Meth^R)(lac^+). As to the kind of experiment: In vitro antibacterial evaluation, MIC by agar dilution, S. aureus 76. The settings on record: Staphylococcus aureus, read-out: MIC. In short, it runs like this: as §1
Assay [4] has as its system S. haemolyticus (Meth^R). As to the kind of experiment: In vitro antibacterial evaluation, MIC by agar dilution, S. haemolyticus. The settings on record: Staphylococcus haemolyticus, read-out: MIC. The method, boiled down: as §1
The subject of assay [5] is S. aureus ATCC 29213. As to the kind of experiment: In vitro antibacterial evaluation, MIC by agar dilution, S. aureus ATCC 29213. The settings on record: Staphylococcus aureus, ATCC29213. In short, it runs like this: as §1
In assay [6] the test system is E. faecalis ATCC 29212. Briefly: In vitro antibacterial evaluation, MIC by agar dilution, E. faecalis ATCC 29212. The settings on record: Enterococcus faecalis, ATCC29212; E. faecalis ATCC 29212; read-out: MIC. In short, it runs like this:
as §1

In assay [7] the test system is E. coli ATCC 25922. Briefly: In vitro antibacterial evaluation, MIC by agar dilution, E. coli ATCC 25922. The settings on record: Escherichia coli, ATCC25922, read-out: MIC. In short, it runs like this:
as §1

Assay [8] relates to E. faecium ATCC 35667. As to the kind of experiment: In vitro antibacterial evaluation, MIC by agar dilution, E. faecium ATCC 35667. The settings on record: Enterococcus faecium, ATCC35667, read-out: MIC. The method, boiled down:
as §1

Assay [9] relates to S. aureus Col8A (Meth^S)(lac^-). As to the kind of experiment: In vitro antibacterial evaluation, MIC by agar dilution, S. aureus Col8A. The settings on record: Staphylococcus aureus. In short, it runs like this: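 Log-phase isolates were spot-inoculated at about 10^4 cfu onto Mueller-Hinton agar carrying duplicate two-fold compound levels, 128 μg/mL to ≤0.25 μg/mL, following NCCLS (1991). Plates were read after 16-20 h at 35°-36° C. The lowest growth-inhibiting concentration gave the MIC (μg/ml).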

Assay [10] has as its system S. aureus ATCC 25923. As to the kind of experiment: In vitro antibacterial evaluation, MIC by agar dilution, S. aureus ATCC 25923. The settings on record: Staphylococcus aureus, ATCC25923. The method, boiled down:
as §1

The mark [11] stands for this setting: S. aureus ATCC 29213, read-out: MIC.

In patent US5607926A, “Cephalosporin antibiotics” (Microcide Pharmaceuticals, Inc., priority 1995, dated 1997) one finds MIC data, which are given here for 14 compounds.

SMILES strings stand for the structures. ≈ marks a conversion by molar mass, not a printed value. Where a name gives a salt, the structure may show the parent alone. Read-outs that look alike come from different tables or passages of the source.

By MIC is commonly meant the lowest concentration that inhibits growth of the organism. On to `N#Cc1ccc(SC2=C(C(=O)O)N3C(=O)[C@@H](NC(=O)Cc4ccccc4)[C@H]3SC2)c(C#N)c1` [Cmpd 51, (7R)-7-[(Phenylacetyl)amino]-3-(2,4-dicyanophenylthio)-3-cephem-4-carboxylic acid], for which the minimum inhibitory concentration (MIC) in assay [1] was below 0.25 µg/mL; in assay [2], above 32 µg/mL; in assay [3], 8 µg/mL (≈ 16.8 µM); in assay [4], 32 µg/mL (≈ 67.2 µM); in [5] (setting [11]), 0.5 µg/mL (≈ 1.05 µM); in [6], 4 µg/mL (≈ 8.39 µM). Further, the MIC is above 32 µg/mL in assay [7], 4 µg/mL (≈ 8.39 µM) in assay [8], below 0.25 µg/mL in [9] and below 0.25 µg/mL in assay [10].
As to `N#CCC(=O)N[C@@H]1C(=O)N2C(C(=O)O)=C(Sc3ccccc3C#N)CS[C@H]12` [Cmpd 52, (7R)-7-[(Cyanoacetyl)amino]-3-(2-cyanophenylthio)-3-cephem-4-carboxylic acid], the minimal inhibitory concentration (MIC) was below 0.25 µg/mL in [1] (S. epidermidis ATCC 31432, read-out: MIC); above 32 µg/mL in assay [2]; 16 µg/mL (≈ 40 µM) in assay [3]; 16 µg/mL (≈ 40 µM) in [4]; 0.5 µg/mL (≈ 1.25 µM) in [5] (setting [11]); 4 µg/mL (≈ 9.99 µM) in assay [6]. Also, the MIC in [7] was above 32 µg/mL; in assay [8], 2 µg/mL (≈ 4.99 µM); in assay [9] it was 0.5 µg/mL (≈ 1.25 µM); in assay [10] (S. aureus ATCC 25923, read-out: MIC), below 0.25 µg/mL.
As for `N=C(N)SCc1ccccc1SC1=C(C(=O)O)N2C(=O)[C@@H](NC(=O)Cc3ccccc3)[C@H]2SC1` [Cmpd 64, (7R)-7-[(Phenylacetyl)amino]-3-(2-isothiouroniummethylphenylthio)-3-cephem-4-carboxylate, inner salt], the minimal inhibitory concentration (MIC) in [1] is below 0.25 µg/mL; in assay [2], above 32 µg/mL; in assay [3], 4 µg/mL; in assay [4], 8 µg/mL; in assay [5], below 0.25 µg/mL; in [6], 1 µg/mL. For the same compound, the minimal inhibitory concentration (MIC) in assay [7] was above 32 µg/mL; in assay [8], 0.5 µg/mL; in [9], below 0.25 µg/mL; in assay [10], below 0.25 µg/mL.
Regarding `O=C(Cc1ccccc1)N[C@@H]1C(=O)N2C(C(=O)O)=C(Sc3ccc(CSc4ncn[nH]4)cc3)CS[C@H]12` [Cmpd 65, (7R)-7-[(Phenylacetyl)amino]-3-(4-(1,2,4-triazol-5-ylthiomethyl)phenylthio)-3-cephem-4-carboxylic acid], the MIC in assay [1] is below 0.25 µg/mL; in [2], above 32 µg/mL; in assay [3], 32 µg/mL (≈ 59.3 µM); in assay [4] it was 32 µg/mL (≈ 59.3 µM); in [5] it was below 0.25 µg/mL; in assay [6] it was 1 µg/mL (≈ 1.85 µM). Also, the MIC is above 32 µg/mL in [7], 2 µg/mL (≈ 3.71 µM) in assay [8], below 0.25 µg/mL in assay [9] and below 0.25 µg/mL in assay [10].
Turning to `O=C(Cc1ccccc1)N[C@@H]1C(=O)N2C(C(=O)O)=C(Sc3ccccc3CSc3ncn[nH]3)CS[C@H]12` [Cmpd 67, (7R)-7-[(Phenylacetyl)amino]-3-(2-(1,2,4-triazol-5-ylthiomethyl)phenylthio)-3-cephem-4-carboxylic acid], the MIC in assay [1] is below 0.25 µg/mL; in assay [2], above 32 µg/mL; in [3], 16 µg/mL (≈ 29.6 µM); in assay [4], 16 µg/mL (≈ 29.6 µM); in [5] it was below 0.25 µg/mL; in [6], 2 µg/mL (≈ 3.71 µM). Further, the MIC in assay [7] is above 32 µg/mL; in assay [8] it was 2 µg/mL (≈ 3.71 µM); in assay [9], below 0.25 µg/mL; in assay [10], below 0.25 µg/mL.
Turning to `O=C1CNC(SCc2ccccc2SC2=C(C(=O)O)N3C(=O)[C@@H](NC(=O)Cc4ccccc4)[C@H]3SC2)=N1` [Cmpd 68], the MIC is below 0.25 µg/mL in assay [1]; above 32 µg/mL in [2]; 16 µg/mL (≈ 28.8 µM) in assay [3]; 32 µg/mL (≈ 57.7 µM) in assay [4]; below 0.25 µg/mL in [5]; 4 µg/mL (≈ 7.21 µM) in assay [6]. The MIC in assay [7] is above 32 µg/mL; in assay [8] it was 4 µg/mL (≈ 7.21 µM); in assay [9], below 0.25 µg/mL; in assay [10], below 0.25 µg/mL.
As for `CN(C)C(SCc1ccccc1SC1=C(C(=O)[O-])N2C(=O)[C@@H](NC(=O)Cc3ccccc3)[C@H]2SC1)=[N+](C)C` [Cmpd 69, (7R)-7-[(Phenylacetyl)amino]-3-(2-tetramethylisothiouroniummethylphenylthio)-3-cephem-4-carboxylate, inner salt], the MIC in assay [1] is below 0.25 µg/mL; in [2] it was above 32 µg/mL; in assay [3] it was 16 µg/mL; in [4], 32 µg/mL; in [5], below 0.25 µg/mL; in assay [6], 2 µg/mL. Moreover, the MIC in [7] is above 32 µg/mL; in assay [8], 2 µg/mL; in [9], below 0.25 µg/mL; in assay [10], below 0.25 µg/mL.
With `O=C(Cc1ccccc1)N[C@@H]1C(=O)N2C(C(=O)O)=C(Sc3ccccc3CSc3ccncc3)CS[C@H]12` [Cmpd 70], the MIC in [1] is below 0.25 µg/mL; in assay [2] it was above 32 µg/mL; in assay [3], 16 µg/mL (≈ 29.1 µM); in [4], 32 µg/mL (≈ 58.2 µM); in assay [5], below 0.25 µg/mL; in [6] it was 0.5 µg/mL (≈ 0.91 µM). The minimum inhibitory concentration (MIC) is above 32 µg/mL in [7], 2 µg/mL (≈ 3.64 µM) in assay [8], below 0.25 µg/mL in assay [9] and below 0.25 µg/mL in assay [10].
`Cn1nnnc1SCc1ccccc1SC1=C(C(=O)O)N2C(=O)[C@@H](NC(=O)Cc3ccccc3)[C@H]2SC1` [Cmpd 71]: the MIC in assay [1] is below 0.25 µg/mL; in [2] it was above 32 µg/mL; in assay [3] it was above 32 µg/mL; in assay [4] it was above 32 µg/mL; in [5], below 0.25 µg/mL; in assay [6] it was 1 µg/mL (≈ 1.8 µM). The minimum inhibitory concentration (MIC) is above 32 µg/mL in assay [7], 2 µg/mL (≈ 3.61 µM) in assay [8], below 0.25 µg/mL in [9] and below 0.25 µg/mL in assay [10].
With `O=C(Cc1ccccc1)N[C@@H]1C(=O)N2C(C(=O)O)=C(Sc3ccccc3CSC3=NCCN3)CS[C@H]12` [Cmpd 72], the MIC in [1] is below 0.25 µg/mL; in assay [2] it was above 32 µg/mL; in assay [3] it was 16 µg/mL (≈ 29.6 µM); in assay [4], 32 µg/mL (≈ 59.2 µM); in assay [5], below 0.25 µg/mL; in [6], 1 µg/mL (≈ 1.85 µM). Also, the minimum inhibitory concentration (MIC) in assay [7] is above 32 µg/mL; in assay [8] it was 2 µg/mL (≈ 3.7 µM); in assay [9], below 0.25 µg/mL; in [10] it was below 0.25 µg/mL.
In the case of `C[n+]1ccc(SCc2ccccc2SC2=C(C(=O)[O-])N3C(=O)[C@@H](NC(=O)Cc4ccccc4)[C@H]3SC2)cc1` [Cmpd 73, (7R)-7-[(Phenylacetyl)amino]-3-(2-(N-methylpyridin-4-ium)thiomethyl)phenylthio)-3-cephem-4-carboxylate, inner salt], the MIC in assay [1] was below 0.25 µg/mL; in assay [2], above 32 µg/mL; in [3], 16 µg/mL; in assay [4], 32 µg/mL; in assay [5], below 0.25 µg/mL; in assay [6], 0.5 µg/mL. The MIC in [7] is above 32 µg/mL; in assay [8] it was 1 µg/mL; in assay [9], below 0.25 µg/mL; in assay [10] it was below 0.25 µg/mL.
Take `O=C(Cc1ccccc1)N[C@@H]1C(=O)N2C(C(=O)O)=C(Sc3cnnn3-c3ccccc3)CS[C@H]12` [Cmpd 91, (7R)-7-[(Phenylacetyl)amino]-3-(1-N-phenyl-1,2,3-triazol-5-ylthio)-3-cephem-4-carboxylic acid]: the MIC in [1] is below 0.25 µg/mL; in assay [2], above 32 µg/mL; in [3], 16 µg/mL (≈ 32.4 µM); in [4] it was above 32 µg/mL; in [6] it was 1 µg/mL (≈ 2.03 µM); in assay [7] it was above 32 µg/mL. Besides, the minimum inhibitory concentration (MIC) in assay [8] is 2 µg/mL (≈ 4.05 µM); in [9], below 0.25 µg/mL; in assay [10] it was below 0.25 µg/mL.
For `O=C(Cc1ccccc1)N[C@@H]1C(=O)N2C(C(=O)O)=C(Sc3nnnn3-c3ccccc3)CS[C@H]12` [Cmpd 94, (7R)-7-[(Phenylacetyl)amino]-3-(1-N-phenyltetrazol-5-ylthio)-3-cephem-4-carboxylic acid], the MIC is below 0.25 µg/mL in assay [1]; above 32 µg/mL in assay [2]; 16 µg/mL (≈ 32.4 µM) in [3]; above 32 µg/mL in [4]; 1 µg/mL (≈ 2.02 µM) in [6]; above 32 µg/mL in assay [7]. The results for the MIC in [8], in assay [9] and in assay [10] were 2 µg/mL (≈ 4.04 µM), below 0.25 µg/mL and below 0.25 µg/mL, respectively.
Consider `O=C(Cc1ccccc1)N[C@@H]1C(=O)N2C(C(=O)O)=C(Sc3ccccc3-c3cnco3)CS[C@H]12` [Cmpd 95, (7R)-7-[(Phenylacetyl)amino]-3-(2-oxazol-5-ylphenylthio)-3-cephem-4-carboxylic acid], for which the MIC in [1] is below 0.25 µg/mL; in assay [2], above 32 µg/mL; in [3], 8 µg/mL (≈ 16.2 µM); in [4], 16 µg/mL (≈ 32.4 µM); in assay [6], 4 µg/mL (≈ 8.1 µM); in assay [7] it was above 32 µg/mL. The minimal inhibitory concentration (MIC) in assay [8] was 4 µg/mL (≈ 8.1 µM); in [9] it was below 0.25 µg/mL; in assay [10] it was below 0.25 µg/mL.
